# Like-named read-outs stand apart in the source and are kept apart here.
# Key:
# [1] = terbutaline inhaler, dysmenorrhea; cited from earlier work
# [2] = Single dose pharmacokinetic study of transvaginal terbutaline gel, serum terbutaline by GC-MS; type: in vivo, human
# Experimental: The objective of this study was to assess the pharmacokinetic parameters of the terbutaline and polycarbophil composition following a single dose regimen comparing progressively increasing concentrations. This open-label study was conducted in ten healthy female volunteers with a mean age of 25±SD (Standard Deviation) of 3.93 years. This study consisted of a 30 day screening period and a 24 hour treatment period with a follow-up evaluation conducted two days after administration of the final dose. The drug was administered transvaginally at 9:00 a.m. A wash out period of at least one week as observed between each of the four doses of the drug. All subjects were given an estro-progestative pill, to ensure that all study participants were at the same point in their menstrual cycle. They began dosing on day 7 to 10 of their pill intake for the single dose study. Serum terbutaline concentrations were obtained from blood samples collected predosing on the mornings of treatment, at frequent intervals during the initial 24 hours post dose (0.5, 1, 1.5, 2, 4, 6, 8, 12, 24 hours) and at 48 hours post dose. Serum terbutaline concentrations were determined using gas chromatography-mass spectrometry. Pharmacokinetic parameters were computed using concentration-time data for each subject following intake of the last dose of investigational drug on the morning of study day 6. The following pharmacokinetic parameters were computed: area under the drug concentration-time curve from time 0 to time t (AUC0-t), where t is the time of the last measurable concentration; peak drug concentration (Cmax); time to peak drug concentration (tmax); steady state drug concentration (CSS); and, elimination half-life (t½).
# All ten subjects completed the study for the 0.1%, 0.2%, and 0.4% (w/w) concentrations. For each dose, the onset of serum terbutaline concentrations occurred within 1 to 2 hours. (See FIG. 1 and Table 2 showing terbutaline concentrations for each tested dose). […] Concentrations were still detectable for up to 48 hours (mean±SEM (Standard Error of the Mean) of 113.11±32.25 pg/mL for the 0.4% concentration).
# (§1) Both the single and multiple dose studies discussed in the preceding examples also evaluated the 0.8% w/w concentration. The average age±SD for the single and multiple dose studies at the 0.8 dose were 26±3.42 and 26±4.12, respectively. The pharmacokinetic parameters from the study follow in Tables 4 and 5.
# [3] = Human ex vivo uterine perfusion model, vagina to uterus transfer of tritiated terbutaline; type: in vitro ADME
# Experimental: This model verifies the preferential direct delivery of terbutaline from the vagina to the uterus. In this study, uteri obtained from women undergoing hysterectomies for benign diseases were immediately connected to an organ perfusion system in which temperature, CO2 concentration, uterine artery pressure and flow were maintained constant. A perfusion model was opened without recirculation. The direct transfer of terbutaline from the vagina to the uterus was analyzed by applying a mixture of tritiated [^3H] terbutaline and unlabeled terbutaline to the cuff of vaginal tissue remaining attached to the cervix after the hysterectomy. Tritiated terbutaline was only used for autoradiography analysis of sections of uterine tissue. The experiments were interrupted at predetermined time intervals after vaginal applications […]. At the end of the perfusion period, ^3H and ^14C radioactivity was measured in endometrial and myometrial samples. Tritiated water and ^14C dextran helped to determine that the extend of non-specific vagina to uterus transport (due to leaks of the system) was less than 10%. The myometrial extraction of terbutaline and its corresponding venous outflow during the 12 hour uterine perfusions are shown in FIG. 3 below. The ^3H terbutaline started to be recovered in the venous effluent uterine during the first 3 hours. Terbutaline flow was maximal at the 6th-9th hour and then decreased for up to 48 hours of perfusion. Terbutaline flow in the venous effluent uterine is the reflection of terbutaline exiting from the organ. Accumulation of tritiated terbutaline was maximal in the myometrium at 12 hours of perfusion. (Mean±SD of 18.40±3.40 ng/100 mg of tissue) and decreased slowly. Significant accumulation of ^3H terbutaline still remained at 48 hours of perfusion, with 20% of the original concentration present.
# [4] = oral administration, cited from earlier work
# [5] = cited from earlier work
# [6] = Side effects at the 0.8% dose in the single and multiple dose studies; type: in vivo, human; details: transvaginal gel
# Source text: as §1
# A number of patients in the study (40%), however, experienced side effects such as tachycardia at this dose. […] This dose can be a method of practicing the invention, but is certainly not the most preferred embodiment.
# [7] = female, human, 0.1 % (w/w), 0.1% gel, serum, mean ± SEM, n=10
# [8] = female, human, 0.2 % (w/w), 0.2% gel, serum, mean ± SEM, n=10
# [9] = female, human, 0.4 % (w/w), 0.4% gel, serum, mean ± SEM, n=10
# [10] = female, human, 0.8 % w/w, 0.8% gel, serum, mean ± SEM, n=8
# [11] = ex vivo perfused uterus, vaginal application
compound,measurement,setting,value
"CC(C)(C)NCC(O)c1cc(O)cc(O)c1 (stereo not shown) [Terbutaline, 5-[2-[(1,1-dimethylethyl)amino]-1-hydroxyethyl]-1,3-benzenediol]",duration of the effect of each spray,[1],≥ 1 h
same,time for which serum concentrations were still detectable,[2],up to 48 hours
same,Css,"[2]; 0.1% gel, serum, mean ± SEM, n=10",0.056 ± 0.041 ng/mL
same,Css,"[2]; 0.2% gel, serum, mean ± SEM, n=10",0.191 ± 0.108 ng/mL
same,Css,"[2]; 0.8% gel, serum, mean ± SEM, n=8",0.579 ± 0.3 ng/mL
same,Cmax,[2]; [7],0.117 ± 0.059 ng/mL
same,Tmax,[2]; [7],13 ± 6 h
same,AUC(0-t),"[2]; female, human, 0.1 % (w/w), 0.1% gel, serum, mean ± SEM, n=10, read-out: AUC0 to 48",2.28 ± 1.84 ng·h/mL
same,half-life,"[2]; female, human, 0.1 % (w/w), 0.1% gel, serum, mean ± SEM, n=10, read-out: t½ (converted)",18 ± 12 h
same,Cmax,[2]; [8],0.297 ± 0.17 ng/mL
same,Tmax,[2]; [8],13 ± 6 h
same,AUC(0-t),"[2]; female, human, 0.2 % (w/w), 0.2% gel, serum, mean ± SEM, n=10, read-out: AUC0 to 48",8.01 ± 4.7 ng·h/mL
same,half-life,"[2]; female, human, 0.2 % (w/w), 0.2% gel, serum, mean ± SEM, n=10, read-out: t½ (converted)",29 ± 15 h
same,Cmax,[2]; [9],0.479 ± 0.149 ng/mL
same,Tmax,[2]; [9],14 ± 7 h
same,AUC(0-t),"[2]; female, human, 0.4 % (w/w), 0.4% gel, serum, mean ± SEM, n=10, read-out: AUC0 to 48",11.9 ± 5.28 ng·h/mL
same,half-life,"[2]; female, human, 0.4 % (w/w), 0.4% gel, serum, mean ± SEM, n=10, read-out: t½ (converted)",24 ± 16 h
same,AUC(0-t),"[2]; female, human, 0.8 % w/w gel, 0.8% gel, serum, mean ± SEM, n=8, read-out: AUC0 to 48",23.2 ± 13.5 ng·h/mL
same,Cmax,[2]; [10],0.787 ± 0.434 ng/mL
same,Tmax,[2]; [10],10 ± 3 h
same,half-life,"[2]; female, human, 0.8 % w/w, 0.8% gel, serum, mean ± SEM, n=8, read-out: t½ (converted)",20 ± 7 h
same,half-life,"[2]; female, human, serum, according to the dose administered (0.1%-0.4%), read-out: Mean t½ estimates",18 to 29 h
same,concentration at 48 h,"[2]; female, human, serum, other: transvaginal, 0.4 % (w/w), 0.4% concentration, mean±SEM",0.113 ± 0.0323 ng/mL
same,onset of serum terbutaline concentrations,"[2]; for each dose (0.1%, 0.2%, 0.4%)",1 to 2 h
same,time terbutaline lasted in the myometrium,[3]; after a single vaginal application,over 48 hours
same,accumulation of tritiated terbutaline in the myometrium,"[3]; at 12 hours of perfusion, Mean±SD",18.40±3.40 ng/100 mg of tissue
same,"3H terbutaline remaining, share of the original concentration",[3]; at 48 hours of perfusion,20%
same,time of maximal accumulation of tritiated terbutaline in the myometrium,[3]; [11],12 h
same,time within which 3H terbutaline started to be recovered in the venous effluent,[3]; [11],≤ 3 h
same,Bioavailability,[4]; extensive first-pass sulphation,15 and 20%
same,further decrease of bioavailability by concomitant food intake,[4],30%
same,known serum levels for toxicity,[5]; prior art,3000 pg/mL
same,known serum threshold susceptible to trigger systemic adverse events such as tachycardia and tremor,[5]; reported in prior art,"3,000-3,500 pg/mL"
same,patients who experienced side effects such as tachycardia,[6],40%

# Reference: patent US6699494B2, “Pharmaceutical composition and method for treating premature labor” (Columbia Laboratories, Inc., priority 1997, dated 2004)
